Experimental findings from patent US12269800B2, “Delivery of therapeutic alkaloid compounds” (priority 2021, dated 2025) are described below.

Data set [1] in a line: Hydrolysis Assay of Example A2, Condition 1 (SGF with pepsin, pH 1.5, 37° C.). In kind it is physicochemical. The note with it: SGF with pepsin pH 1.5, 37° C., 0.5 mM.
Data set [2] is classed as physicochemical. The conditions noted are these: DI water, 25° C., 0.5 mM.
The nature of data set [3]: Plasma Stability Assay of Example A3, mouse plasma. The conditions noted are these: % of prodrug compound remaining, 37° C.
Data set [4] in a line: Plasma Stability Assay of Example A3, human plasma. The note with it: % of prodrug compound remaining, 37° C.
For data set [5] the following is noted: 5 µM.
For data set [6] the following is noted: 5 µM. The source holds these as a separate data set.

Like-named read-outs stand apart in the source and are kept apart here.

Turning to `COc1ccc([C@@]23CCC(=NNC(=O)CCCC(=O)O)C[C@@H]2N(C)CC3)cc1OC` [Compound 246, 5-(2-((3aS,7aS)-3a-(3,4-dimethoxyphenyl)-1-methyloctahydro-6H-indol-6-ylidene)hydrazineyl)-5-oxopentanoic acid], the “Condition 1 Conversion (%)” value in data set [1] (time 1 min), in data set [1] (time 5 min), in data set [1] (time 30 min), in data set [1] (time 1 h), in data set [1] (time 4 h) and in data set [1] (time 24 h) was 100% each time. The “Condition 2 Conversion (%)” value is given as 40% in data set [2] (time 1 min); 50% in data set [2] (time 5 min); 60% in data set [2] (time 30 min); 75% in data set [2] (time 1 h); 100% in data set [2] (time 4 h); 100% in data set [2] (time 24 h).

Take `COc1ccc([C@@]23CCC(OC(=O)c4cccc(C)c4)=C[C@@H]2N(C)CC3)cc1OC` [Compound 374, (3aS,7aS)-3a-(3,4-dimethoxyphenyl)-1-methyl-2,3,3a,4,5,7a-hexahydro-1H-indol-6-yl 3-methylbenzoate]: the “Mouse Plasma Prodrug (%)” value in data set [3] (0.0 min) is 100%; in data set [3] (15 min), 33%; in data set [3] (30 min), 4%; in data set [3] (60 min) it was 0%; in data set [3] (120 min), 0%; in data set [3] (240 min) it was 0%. For the same compound, the “Human Plasma Prodrug (%)” value is 100% in data set [4] (0.0 min); 98% in data set [4] (15 min); 88% in data set [4] (30 min); 84% in data set [4] (60 min); 62% in data set [4] (120 min); 11% in data set [4] (240 min). The “Human Plasma Prodrug (%)” value was 100.0% in data set [6] (0 min); above 99% in data set [6] (10 min); above 99% in data set [6] (30 min); above 99% in data set [6] (60 min); above 99% in data set [6] (120 min); 95.4% in data set [6] (240 min). In addition, the “Rat Plasma Prodrug (%)” value is recorded as 100.0% in data set [5] (0 min); 9.7% in data set [5] (10 min); 0.3% in data set [5] (30 min); 0.1% in data set [5] (60 min); 0.0% in data set [5] (120 min); 0.0% in data set [5] (240 min).

`COc1ccc([C@@]23CC/C(=N/NC(=O)Nc4ccccc4Cl)C[C@@H]2N(C)CC3)cc1OC` [Compound 270, 1-[(Z)—[(3aS,7aS)-3a-(3,4-dimethoxyphenyl)-1-methyl-2,3,4,5,7,7a-hexahydroindol-6-ylidene]amino]-3-(2-chlorophenyl)urea]: the “Condition 1 Conversion (%)” value in data set [1] (time 4 h) and in data set [1] (time 24 h) was 1% in each case. The “Condition 2 Conversion (%)” value in data set [2] (time 4 h) and in data set [2] (time 24 h) was 1% each time.

As to `COc1ccc([C@@]23CCC(OC(=O)c4cccc(C)c4C)=C[C@@H]2N(C)CC3)cc1OC` [Compound 373, (3aS,7aS)-3a-(3,4-dimethoxyphenyl)-1-methyl-2,3,3a,4,5,7a-hexahydro-1H-indol-6-yl 2,3-dimethylbenzoate], the “Mouse Plasma Prodrug (%)” value in data set [3] (0.0 min) worked out at 100%; in data set [3] (15 min), 82%; in data set [3] (30 min), 64%; in data set [3] (60 min), 41%; in data set [3] (120 min), 12%; in data set [3] (240 min) it was 1%. The “Human Plasma Prodrug (%)” value is on record as 100% in data set [4] (0.0 min); 100.0% in data set [6] (0 min); 96.3% in data set [6] (10 min); above 99% in data set [6] (30 min); 94.8% in data set [6] (60 min); 89.9% in data set [6] (120 min). In data set [6] (240 min), the “Human Plasma Prodrug (%)” value is recorded as 96.3%. Also, the “Rat Plasma Prodrug (%)” value in data set [5] (0 min) came to 100.0%; in data set [5] (10 min), 81.0%; in data set [5] (30 min), 58.4%; in data set [5] (60 min) it was 26.8%; in data set [5] (120 min), 5.2%; in data set [5] (240 min), 1.3%.

As to `CCCCC(=O)OC1=C[C@@H]2N(C)CC[C@]2(c2ccc(OC)c(OC)c2)CC1` [Compound 268, N-[[(3aS,7aS)-3a-(3,4-dimethoxyphenyl)-1-methyl-3,4,5,7a-tetrahydro-2H-indol-6-yl] pentanoate], the “Condition 1 Conversion (%)” value in data set [1] (time 1 min), in data set [1] (time 5 min), in data set [1] (time 30 min), in data set [1] (time 1 h), in data set [1] (time 4 h) and in data set [1] (time 24 h) was 0% in each case. Moreover, the “Condition 2 Conversion (%)” value in data set [2] (time 1 min), in data set [2] (time 5 min), in data set [2] (time 30 min), in data set [2] (time 1 h), in data set [2] (time 4 h) and in data set [2] (time 24 h) was 0% throughout.

As for `COc1ccc([C@@]23CCC(OC(=O)c4c(C)cccc4C)=C[C@@H]2N(C)CC3)cc1OC` [Compound 372, (3aS,7aS)-3a-(3,4-dimethoxyphenyl)-1-methyl-2,3,3a,4,5,7a-hexahydro-1H-indol-6-yl 2,6-dimethylbenzoate], the “Mouse Plasma Prodrug (%)” value is reported as 100% in data set [3] (0.0 min); 92% in data set [3] (15 min); 91% in data set [3] (30 min); 88% in data set [3] (60 min); 73% in data set [3] (120 min); 64% in data set [3] (240 min). Also, the “Human Plasma Prodrug (%)” value is given as 100% in data set [4] (0.0 min); 97% in data set [4] (15 min); 99% in data set [4] (30 min); 94% in data set [4] (60 min); 81% in data set [4] (120 min); 38% in data set [4] (240 min). Moreover, the “Human Plasma Prodrug (%)” value is reported as 100.0% in data set [6] (0 min); above 99% in data set [6] (10 min); above 99% in data set [6] (30 min); above 99% in data set [6] (60 min); above 99% in data set [6] (120 min); above 99% in data set [6] (240 min). The “Rat Plasma Prodrug (%)” value is listed as 100.0% in data set [5] (0 min); above 99% in data set [5] (10 min); above 99% in data set [5] (30 min); above 99% in data set [5] (60 min); 98.4% in data set [5] (120 min); above 99% in data set [5] (240 min).

Consider `COc1ccc([C@@]23CCC(=NNC(=O)c4ccc(F)cc4)C[C@@H]2N(C)CC3)cc1OC` [Compound 220, N-[[(3aS)-3a-(3,4-dimethoxyphenyl)-1-methyl-2,3,4,5,7,7a-hexahydroindol-6-ylidene]amino]-4-fluoro-benzamide], for which the “Condition 2 Conversion (%)” value in data set [2] (time 1 min) stood at 20.02%; in data set [2] (time 5 min) it was 21.53%; in data set [2] (time 30 min), 22.27%; in data set [2] (time 1 h), 55.36%; in data set [2] (time 4 h) it was 88.25%; in data set [2] (time 24 h) it was 89.93%.
